Like-named read-outs stand apart in the source and are kept apart here.
Assays:
[1] = test system: hyperlipidemic albino rats; set-up: method as in doi:10.1076/phbi.37.1.37.6314; details: cited from earlier work
[2] = Pharmacokinetic study of PDC in rat plasma after oral administration of pure PDC or IRE (LC-MS/MS); assay type: in vivo, Sprague-Dawley rats; details: male, Sprague-Dawley, PDC in rat plasma, n = 6, mean ± SD; for CL/F: read-out: CLz/F (converted); for MRT last: read-out: MRT0–t; for MRT inf: read-out: MRT0–∞; for Vd/F: read-out: Vz/F; for half-life: read-out: t1/2z (converted)
Description: The analytical procedures described in Section 3.3 were performed to quantify PDC in rat plasma samples obtained from 24 male Sprague-Dawley rats. Out of these rats, 12 were orally administered with pure PDC, whereas 12 were orally administered with IRE. Establishing an intravenous dose group might provide the bioavailability of PDC, however, the present experiment aimed to compare the pharmacokinetic differences of PDC between monomer and IRE groups after oral administration. A fully validated LC-MS/MS method was developed and successfully applied to the pharmacokinetic behavior of PDC in rats after oral administration of the pure PDC and IRE, which were given at the same equivalent doses (42 and 84 mg/kg PDC). The mean plasma concentration-time profiles of PDC and the herbal extract after oral administration at different doses are illustrated in Figure 3, and the estimated pharmacokinetic parameters are presented in Table 4. A simple and rapid protein precipitation method was used for the preparation of all the plasma samples (calibration standards and QC samples, and real plasma samples post-dose). Plasma sample aliquots (75 µL) were added with IS solution (50 µL, 200 ng/mL) and methanol (500 µL) in tubes, then vortex-mixed for 1 min, and centrifuged at 14,000× g for 10 min. […] The dried residue was reconstituted in 100 µL of methanol-H2O (70:30, v/v) and centrifuged at 14,000× g for 5 min before analysis, and an aliquot of 5 µL was injected into LC-MS/MS systems for analysis. All experimental procedures and protocols were approved by the Animal Care and Use Committee of Jilin University (Changchun, China). All the rats were fasted for 12 h before the experiment, and were randomly divided into four groups (n = 6 per group). Group I and II were intragastrically administrated an oral dose of 42 and 84 mg/kg pure PDC, respectively. Group III and IV were intragastrically administrated an oral dose of 0.16 and 0.32 g/kg IRE, which was equivalent to 42 and 84 mg/kg PDC, respectively. Both pure PDC and IRE powder was suspended in 0.5% carboxymethyl cellulose sodium (CMC-Na) solution just before use. Blood samples (0.3 mL) were collected from the orbital sinus venous plexus at 0, 0.083, 0.25, 0.5, 0.75, 1, 1.5, 2, 3, 4, 6, 8, and 12 h after gavage dosing. After centrifuging at 5000× g for 10 min, the plasma samples were obtained and frozen at −20 °C until analysis. The pharmacokinetic parameters including Cmax, Tmax, t1/2z, AUC0–t, AUC0–∞, CLz/F, and Vz/F were calculated by non-compartmental method using the DAS 2.0 pharmacokinetics program (Chinese Pharmacology Society, Beijing, China). An independent-sample t-test was performed twice to evaluate the differences of pharmacokinetic parameters between the two groups.

[3] = Stability of PDC in rat plasma QC samples under various storage conditions; assay type: in vitro ADME; details: n = 6
Description: The results were compared with those obtained with freshly prepared QC samples. It could be seen from Table 3 that the results are well within the acceptance limits. Stability of PDC in plasma was tested by the analysis of six replicates of QC samples […] exposed to various storage conditions. To assess the short-term stability study, QC samples were kept at 25 °C for at least 4 h and samples were processed at different time points and were determined and compared with the freshly prepared QC samples. For the long-term stability, QC samples were determined after storage of the plasma samples at −20 °C for 2 months. For freeze-thaw stability, QC samples were subjected to three freeze/thaw cycles (room temperature to −20 °C). For post-preparation stability, the processed QC samples stored in the autosampler trials for 12 h at 4 °C, were analyzed and compared with the freshly prepared QC samples.

[4] = 42 mg/kg PDC (IRE dosage equivalent to PDC dosage)
[5] = 84 mg/kg PDC (IRE dosage equivalent to PDC dosage)
[6] = processed rat plasma samples in autosampler, Post-preparation stability (4 °C for 12 h), nominal 0.60 ng/mL (LLOQ)
[7] = processed rat plasma samples in autosampler, Post-preparation stability (4 °C for 12 h), nominal 1.50 ng/mL (QC-low)
[8] = processed rat plasma samples in autosampler, Post-preparation stability (4 °C for 12 h), nominal 15.0 ng/mL (QC-medium)
[9] = processed rat plasma samples in autosampler, Post-preparation stability (4 °C for 12 h), nominal 180 ng/mL (QC-high)
[10] = rat plasma, Long-term stability (−20 °C for 2 months), nominal 0.60 ng/mL (LLOQ)
[11] = rat plasma, Long-term stability (−20 °C for 2 months), nominal 1.50 ng/mL (QC-low)
[12] = rat plasma, Long-term stability (−20 °C for 2 months), nominal 15.0 ng/mL (QC-medium)
[13] = rat plasma, Long-term stability (−20 °C for 2 months), nominal 180 ng/mL (QC-high)
[14] = rat plasma, Short-term (25 °C for 4 h), nominal 0.60 ng/mL (LLOQ)
[15] = rat plasma, Short-term (25 °C for 4 h), nominal 1.50 ng/mL (QC-low)
[16] = rat plasma, Short-term (25 °C for 4 h), nominal 15.0 ng/mL (QC-medium)
[17] = rat plasma, Short-term (25 °C for 4 h), nominal 180 ng/mL (QC-high)
[18] = rat plasma, Three freeze/thaw cycles (room temperature to −20 °C), nominal 0.60 ng/mL (LLOQ)
[19] = rat plasma, Three freeze/thaw cycles (room temperature to −20 °C), nominal 1.50 ng/mL (QC-low)
[20] = rat plasma, Three freeze/thaw cycles (room temperature to −20 °C), nominal 15.0 ng/mL (QC-medium)
[21] = rat plasma, Three freeze/thaw cycles (room temperature to −20 °C), nominal 180 ng/mL (QC-high)

AUC(0-inf) [2, 4]: 379 ± 84.8 ng·h/mL
AUC(0-t) [2, 4]: 374 ± 82.9 ng·h/mL
Cmax [2, 4]: 95.2 ± 7.93 ng/mL
Tmax [2, 4]: 1.6 ± 0.42 h
CL/F [2, 4]: 1930 mL/min/kg
MRT last [2, 4]: 3.17 ± 0.45 h
MRT inf [2, 4]: 3.33 ± 0.48 h
Vd/F [2, 4]: 287 ± 63.5 L/kg
half-life [2, 4]: 1.73 ± 0.11 h
AUC(0-inf) [2, 5]: 665 ± 151 ng·h/mL
AUC(0-t) [2, 5]: 661 ± 149 ng·h/mL
Cmax [2, 5]: 174 ± 12.9 ng/mL
Tmax [2, 5]: 1.8 ± 0.91 h
CL/F [2, 5]: 2110 mL/min/kg
MRT last [2, 5]: 3.08 ± 0.42 h
MRT inf [2, 5]: 3.15 ± 0.44 h
Vd/F [2, 5]: 273 ± 45.6 L/kg
half-life [2, 5]: 1.5 ± 0.08 h
Determined Conc. (Mean ± SD) [3, 6]: 0.596 ± 0.011 ng/mL
RE [3, 6]: −0.60%
Determined Conc. (Mean ± SD) [3, 7]: 1.65 ± 0.10 ng/mL
RE [3, 7]: 10.04%
Determined Conc. (Mean ± SD) [3, 8]: 13.81 ± 0.63 ng/mL
RE [3, 8]: −7.91%
Determined Conc. (Mean ± SD) [3, 9]: 183.17 ± 2.59 ng/mL
RE [3, 9]: 1.76%
Determined Conc. (Mean ± SD) [3, 10]: 0.573 ± 0.008 ng/mL
RE [3, 10]: −4.56%
Determined Conc. (Mean ± SD) [3, 11]: 1.52 ± 0.16 ng/mL
RE [3, 11]: 1.11%
Determined Conc. (Mean ± SD) [3, 12]: 15.96 ± 0.68 ng/mL
RE [3, 12]: 6.39%
Determined Conc. (Mean ± SD) [3, 13]: 160.70 ± 7.58 ng/mL
RE [3, 13]: −10.72%
Determined Conc. (Mean ± SD) [3, 14]: 0.673 ± 0.014 ng/mL
RE [3, 14]: 12.24%
Determined Conc. (Mean ± SD) [3, 15]: 1.44 ± 0.09 ng/mL
RE [3, 15]: −3.77%
Determined Conc. (Mean ± SD) [3, 16]: 14.88 ± 1.03 ng/mL
RE [3, 16]: −0.77%
Determined Conc. (Mean ± SD) [3, 17]: 192.71 ± 11.42 ng/mL
RE [3, 17]: 7.06%
Determined Conc. (Mean ± SD) [3, 18]: 0.570 ± 0.016 ng/mL
RE [3, 18]: −5.00%
Determined Conc. (Mean ± SD) [3, 19]: 1.38 ± 0.162 ng/mL
RE [3, 19]: −7.82%
Determined Conc. (Mean ± SD) [3, 20]: 16.32 ± 1.37 ng/mL
RE [3, 20]: 8.81%
Determined Conc. (Mean ± SD) [3, 21]: 162.85 ± 15.57 ng/mL
RE [3, 21]: −9.53%
SMILES: C[C@@H]1CC[C@]2(C(=O)O[C@@H]3O[C@H](CO)[C@@H](O)[C@H](O)[C@H]3O)CC[C@]3(C)C(=CC[C@@H]4[C@@]5(C)CC[C@H](O)[C@@](C)(CO)[C@@H]5CC[C@]43C)[C@@H]2[C@]1(C)O [PDC, Pedunculoside]
hypolipidemic activity [1]: significant hypolipidemic activity
